Results: DBAASP
Values after ≈ are worked out from the molar mass of the structure shown.

Legend:
Assay in all cases: ≥ marks a high value that may be exact or a test limit, other limits are often not marked, values filed in µg/mL are converted to µM
[1] = tested on: Acinetobacter baumannii ATCC 17987
[2] = tested on: Acinetobacter baumannii AYE
[3] = tested on: Acinetobacter baumannii NCTC 13302
[4] = tested on: Acinetobacter baumannii NCTC 13424
Acinetobacter baumannii = tested on: Acinetobacter baumannii
[5] = tested on: Acinetobacter baylyi ADP1
[6] = tested on: Enterococcus faecalis NCTC 12201
[7] = tested on: Enterococcus faecalis NCTC 12204
[8] = tested on: Enterococcus faecalis NCTC 775
Escherichia coli 319238 = tested on: Escherichia coli 319238
[9] = tested on: Escherichia coli CFI_160_KPC2
[10] = tested on: Escherichia coli CFI_161_NDM
Escherichia coli LEC 001 = tested on: Escherichia coli LEC 001
[11] = tested on: Escherichia coli NCTC 12923
Klebsiella pneumoniae M6 = tested on: Klebsiella pneumoniae M6
[12] = tested on: Klebsiella pneumoniae NCTC 13368
[13] = tested on: Pseudomonas aeruginosa NCTC 13437
[14] = tested on: Pseudomonas aeruginosa PAO1
[15] = tested on: Pseudomonas syringae pv. tomato
Staphylococcus aureus 15 = tested on: Staphylococcus aureus 15
[16] = tested on: Staphylococcus aureus NCTC 9144
[17] = tested on: Xanthomonas axonopodis pv. phaseoli
Aspergillus niger = tested on: Aspergillus niger
Candida albicans = tested on: Candida albicans
[18] = tested on: Escherichia coli ATCC 25922
Kluyveromyces marxianus = tested on: Kluyveromyces marxianus
Micrococcus luteus = tested on: Micrococcus luteus
Pachysolen tannophilus = tested on: Pachysolen tannophilus
[19] = tested on: Staphylococcus aureus ATCC 6538P
Trichoderma harzianum = tested on: Trichoderma harzianum
[20] = tested on: Pseudomonas aeruginosa ATCC 27853
[21] = tested on: Staphylococcus aureus ATCC 49476
Staphylococcus aureus MR = tested on: Staphylococcus aureus MR
[22] = tested on: Acinetobacter baumannii ATCC 7978
[23] = tested on: Candida albicans ATCC 10231
[24] = tested on: Klebsiella aerogenes ATCC 13048
[25] = tested on: Staphylococcus aureus ATCC 29231
[26] = tested on: Staphylococcus aureus MW2
[27] = tested on: Enterococcus faecium E007
[28] = tested on: Pseudomonas aeruginosa PA14
[29] = tested on: Saccharomyces cerevisiae AS2.430
[30] = tested on: Staphylococcus aureus ATCC 25923

CC[C@H](C)[C@H](NC(=O)[C@H](CCCCN)NC(=O)[C@H](CCC(=O)O)NC(=O)[C@H](CCCCN)NC(=O)CNC(=O)[C@H](C)N)C(=O)N[C@@H](CCCN=C(N)N)C(=O)N[C@@H](CCCCN)C(=O)N[C@@H](CCCCN)C(=O)N[C@@H](CC(C)C)C(=O)N[C@@H](CCCCN)C(=O)N[C@@H](CC(N)=O)C(=O)N[C@@H](CCC(=O)O)C(=O)N[C@H](C(=O)N[C@@H](CCCCN)C(=O)N[C@@H](CCCCN)C(=O)N[C@@H](CCCCN)C(=O)N[C@@H](Cc1c[nH]c2ccccc12)C(=O)N[C@@H](CCCN=C(N)N)C(=O)N[C@@H](CCCCN)C(=O)N[C@@H](C)C(=O)N[C@H](C(=O)N[C@H](C(=O)N[C@@H](C)C(=O)N[C@@H](Cc1c[nH]c2ccccc12)C(=O)O)[C@@H](C)CC)C(C)C)[C@@H](C)CC [AGKEKIRKKLKNEIKKKWRKAVIAW]
MIC [1]: 2.62 µM (≈ 8 µg/mL)
MIC [2]: 0.656 µM (≈ 2 µg/mL)
MIC [3]: 0.656 µM (≈ 2 µg/mL)
MIC [4]: 5.24 µM (≈ 16 µg/mL)
MIC (Acinetobacter baumannii): 0.656 µM (≈ 2 µg/mL)
MIC [5]: 1.31 µM (≈ 4 µg/mL)
MIC [6]: ≥ 42 µM
MIC [7]: 21 µM (≈ 64 µg/mL)
MIC [8]: ≥ 42 µM
MIC (Escherichia coli 319238): 5.24 µM (≈ 16 µg/mL)
MIC [9]: 2.62 µM (≈ 8 µg/mL)
MIC [10]: 1.31 µM (≈ 4 µg/mL)
MIC (Escherichia coli LEC 001): 5.24 µM (≈ 16 µg/mL)
MIC [11]: 0.656 µM (≈ 2 µg/mL)
MIC (Klebsiella pneumoniae M6): 21 µM (≈ 64 µg/mL)
MIC [12]: ≥ 42 µM
MIC [13]: ≥ 42 µM
MIC [14]: 42 µM (≈ 128 µg/mL)
MIC [15]: 0.328 µM (≈ 1 µg/mL)
MIC (Staphylococcus aureus 15): ≥ 42 µM
MIC [16]: 10.5 µM (≈ 32 µg/mL)
MIC [17]: 0.164 µM (≈ 0.5 µg/mL)

CC[C@H](C)[C@H](NC(=O)[C@H](CC(C)C)NC(=O)[C@H](CCCCN)NC(=O)[C@@H](N)CC(=O)O)C(=O)NCC(=O)N[C@@H](CO)C(=O)N[C@H]1CSSC[C@@H]2NC(=O)[C@H](Cc3cnc[nH]3)NC(=O)CNC(=O)CNC(=O)[C@H](CCCCN)NC(=O)[C@H](Cc3ccc(O)cc3)NC(=O)CNC(=O)[C@H](CCCN=C(N)N)NC(=O)[C@H](CCCN=C(N)N)NC(=O)[C@H](CCCCN)NC(=O)[C@@H]3CSSC[C@@H](C(=O)N[C@@H](CCC(=O)O)C(=O)N[C@@H](CCC(=O)O)C(=O)O)NC(=O)[C@H](Cc4c[nH]c5ccccc45)NC(=O)[C@H](CSSC[C@H](NC(=O)[C@H](CC(=O)O)NC(=O)[C@H](CO)NC(=O)[C@H]([C@@H](C)O)NC(=O)[C@H](Cc4ccc(O)cc4)NC(=O)[C@H](CC(N)=O)NC(=O)[C@H]([C@@H](C)O)NC(=O)[C@H](C)NC(=O)CNC(=O)[C@H](Cc4c[nH]c5ccccc45)NC(=O)[C@H](C(C)C)NC1=O)C(=O)N[C@@H](CC(N)=O)C(=O)N[C@@H](C)C(=O)N[C@@H](CCC(=O)O)C(=O)N3)NC(=O)[C@H](CC(N)=O)NC(=O)[C@H](C(C)C)NC(=O)[C@H](CC(N)=O)NC(=O)[C@H](Cc1c[nH]c3ccccc13)NC(=O)[C@H](Cc1ccccc1)NC(=O)[C@H](CO)NC(=O)CNC2=O [DKLIGSCVWGATNYTSDCNAECKRRGYKGGHCGSFWNVNCWCEE]
MIC (Aspergillus niger): 2.9 µM (≈ 14.3 µg/mL)
MIC (Candida albicans): 2.9 µM (≈ 14.3 µg/mL)
MIC [18]: 1 µM (≈ 4.94 µg/mL)
MIC (Kluyveromyces marxianus): 2.9 µM (≈ 14.3 µg/mL)
MIC (Micrococcus luteus): 1.9 µM (≈ 9.39 µg/mL)
MIC (Pachysolen tannophilus): 2.9 µM (≈ 14.3 µg/mL)
MIC [19]: 8 µM (≈ 39.5 µg/mL)
MIC (Trichoderma harzianum): 2.9 µM (≈ 14.3 µg/mL)

CC[C@H](C)[C@H](NC(=O)[C@H](C)NC(=O)[C@H](CCCCN)NC(=O)CNC(=O)[C@H](C)NC(=O)[C@H](CO)NC(=O)[C@H](Cc1ccccc1)NC(=O)[C@H](CC(C)C)NC(=O)CNC(=O)CNC(=O)[C@@H](NC(=O)[C@@H](NC(=O)[C@H](Cc1cnc[nH]1)NC(=O)[C@H](Cc1cnc[nH]1)NC(=O)[C@@H](NC(=O)[C@@H](N)Cc1ccccc1)[C@@H](C)CC)[C@@H](C)CC)[C@@H](C)CC)C(=O)N[C@@H](Cc1cnc[nH]1)C(=O)N[C@@H](CCCN=C(N)N)C(=O)N[C@@H](CC(C)C)C(=O)N[C@H](C(=O)N[C@@H](CCCN=C(N)N)C(=O)O)[C@@H](C)CC [FIHHIIGGLFSAGKAIHRLIR]
MIC (Candida albicans): 54.3 µM (≈ 128 µg/mL)
MIC [20]: > 217 µM
MIC [21]: 27.2 µM (≈ 64 µg/mL)
MIC (Staphylococcus aureus MR): ≥ 109 µM

CC[C@H](C)[C@H](NC(=O)[C@H](CCCCN)NC(=O)[C@H](CCCCN)NC(=O)[C@H](CC(C)C)NC(=O)[C@@H](NC(=O)[C@H](CCCCN)NC(=O)[C@H](Cc1c[nH]c2ccccc12)NC(=O)[C@@H](N)CC(C)C)[C@@H](C)CC)C(=O)N[C@@H](Cc1c[nH]c2ccccc12)C(=O)N[C@@H](CCCN=C(N)N)C(=O)N[C@H](C(=O)N[C@@H](CC(C)C)C(=O)N[C@@H](Cc1c[nH]c2ccccc12)C(=O)N[C@@H](CC(N)=O)C(=O)N[C@@H](Cc1c[nH]c2ccccc12)C(=O)N[C@@H](CCCN=C(N)N)C(=O)O)C(C)C [LWKILKKIWRVLWNWR]
MIC [22]: ≥ 57.2 µM
MIC [23]: 28.6 µM (≈ 64 µg/mL)
MIC [24]: ≥ 57.2 µM
MIC [25]: 14.3 µM (≈ 32 µg/mL)
MIC [26]: 28.6 µM (≈ 64 µg/mL)

CC[C@H](C)[C@H](NC(=O)[C@H](CCCCN)NC(=O)[C@H](CCCCN)NC(=O)[C@H](Cc1c[nH]c2ccccc12)NC(=O)[C@@H](NC(=O)[C@H](CCCCN)NC(=O)[C@H](Cc1c[nH]c2ccccc12)NC(=O)[C@@H](N)CC(C)C)[C@@H](C)CC)C(=O)N[C@@H](Cc1c[nH]c2ccccc12)C(=O)N[C@@H](CCCN=C(N)N)C(=O)N[C@H](C(=O)NCC(=O)N[C@@H](Cc1c[nH]c2ccccc12)C(=O)N[C@@H](CC(N)=O)C(=O)N[C@@H](Cc1c[nH]c2ccccc12)C(=O)N[C@@H](CCCN=C(N)N)C(=O)O)C(C)C [LWKIWKKIWRVGWNWR]
MIC [23]: 14.2 µM (≈ 32 µg/mL)
MIC [27]: ≥ 56.7 µM
MIC [24]: 28.4 µM (≈ 64 µg/mL)
MIC [28]: 14.2 µM (≈ 32 µg/mL)
MIC [25]: 7.09 µM (≈ 16 µg/mL)

CC(C)C[C@H](NC(=O)[C@H](CO)NC(=O)CNC(=O)[C@H](CCC(=O)O)NC(=O)[C@H](CC(C)C)NC(=O)[C@H](CCC(=O)O)NC(=O)[C@H](C)NC(=O)[C@H](CCC(N)=O)NC(=O)[C@H](CO)NC(=O)[C@H](CCC(=O)O)NC(=O)[C@H](CCC(=O)O)NC(=O)[C@@H](N)Cc1ccc(O)cc1)C(=O)N[C@@H](CCCCN)C(=O)O [YEESQAELEGSLK]
MIC [18]: 211 µM (≈ 313 µg/mL)
MIC [29]: ≥ 6750 µM
MIC [30]: 211 µM (≈ 313 µg/mL)
